Data set [1] can be described thus: fluorescence quantum yield with reference to Nile Blue perchlorate in ethanol. The following applies: in toluene. The data set is classed as physicochemical. How it is done:
The fluorescence quantum yield of various photosensitizers formulated in a nano-emulsion and in solvent was measured with reference to Nile Blue perchlorate in ethanol, λexc 605 nm (Fref=0.27).

The nature of data set [2]: physico-chemical behaviour of taxol under nano-emulsion preparation and analysis conditions. The data set is classed as physicochemical. The following applies: after ultrasound, heat treatment (4 h at 60° C.) and analytical conditions (acetonitrile/water mixture).

The structures appear in SMILES notation.

Results on two molecules are retold here after patent US10092506B2, “Encapsulation of lipophilic or amphiphilic therapeutic agents in nano-emulsion” (COMMISSARIAT A L'ENERGIE ATOMIQUE ET AUX ENERGIES …, priority 2008, dated 2018).

As to `C1=Cc2nc1c(-c1ccccc1)c1ccc([nH]1)c(-c1ccccc1)c1nc(c(-c3ccccc3)c3ccc([nH]3)c2-c2ccccc2)CC1` [mTPC, meso-tetraphenylchlorine], the “Fluorescence quantum yield F” value in data set [1] came to 0.38. For the molecule `CC(=O)O[C@H]1C(=O)[C@@]2(C)[C@H]([C@H](OC(=O)c3ccccc3)[C@]3(O)C[C@H](OC(=O)[C@H](O)[C@@H](NC(=O)c4ccccc4)c4ccccc4)C(C)=C1C3(C)C)[C@]1(OC(C)=O)CO[C@@H]1C[C@@H]2O` [paclitaxel], the degradation of taxol result in data set [2] was “absence of degradation”.
